Patent US7632850B2, “Arylalkylcarbamate derivatives and production thereof” (Sanofi-aventis, priority 2003, dated 2009)
pIC50: −log10 of the molar value.

Assays:
male OF1 mice = assay: analgesia test: abdominal stretches induced by PBQ (phenylbenzoquinone) i.p.; format: in vivo
Method: The in vivo activity of the compounds of the invention was evaluated in an analgesia test. Accordingly, intraperitoneal (i.p.) administration of PBQ (phenylbenzoquinone, 2 mg/kg in a 0.9% sodium chloride solution containing 5% of ethanol) to male OF1 mice weighing 25 to 30 g causes abdominal stretches, on average 30 twists or contractions during the period from 5 to 15 minutes after injection. The test compounds are administered orally in suspension in Tween 80 at 0.5%, 60 minutes or 120 minutes before the administration of PBQ.

[1] = molecular target: T1, FAAH (Fatty Acid Amide Hydrolase) (Mus musculus, UniProt O08914); assay: radioenzymatic assay of anandamide hydrolysis by FAAH (mouse brain membrane homogenates); format: biochemical; conditions: concentration inhibiting by 50% the control enzyme activity of FAAH; mouse brain membranes, 10 μM anandamide, 15 minutes at 25° C.
T1 construct: Membrane homogenates are prepared at the time of use by homogenizing the tissues in a Polytron; from tissue; host or cells: mouse brain (minus the cerebellum), membrane homogenate
T1 sequence (O08914 1-579): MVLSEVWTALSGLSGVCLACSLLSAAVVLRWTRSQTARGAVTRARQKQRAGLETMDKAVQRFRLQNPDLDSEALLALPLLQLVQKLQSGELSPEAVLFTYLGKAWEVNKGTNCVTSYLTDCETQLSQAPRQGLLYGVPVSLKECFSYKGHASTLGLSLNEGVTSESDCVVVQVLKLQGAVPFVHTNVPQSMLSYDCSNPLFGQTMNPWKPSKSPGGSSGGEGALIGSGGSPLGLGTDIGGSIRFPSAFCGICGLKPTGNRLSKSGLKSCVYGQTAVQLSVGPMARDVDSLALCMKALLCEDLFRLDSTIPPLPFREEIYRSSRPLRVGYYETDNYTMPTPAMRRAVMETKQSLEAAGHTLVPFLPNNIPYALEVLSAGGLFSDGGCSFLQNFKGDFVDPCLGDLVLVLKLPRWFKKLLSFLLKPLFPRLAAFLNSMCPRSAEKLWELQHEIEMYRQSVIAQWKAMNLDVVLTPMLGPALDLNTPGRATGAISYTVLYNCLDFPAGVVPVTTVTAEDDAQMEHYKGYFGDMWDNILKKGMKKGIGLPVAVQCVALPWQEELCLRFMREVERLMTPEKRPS
Method: The compounds of the invention were subjected to pharmacological tests permitting determination of their inhibitory effect on the enzyme FAAH (Fatty Acid Amide Hydrolase).
Accordingly, mouse brains (minus the cerebellum) are removed and stored at −80° C. Membrane homogenates are prepared at the time of use by homogenizing the tissues in a Polytron in a 10 mM Tris HCl buffer (pH 8.0) containing 150 mM NaCl and 1 mM EDTA. The enzyme reaction is subsequently conducted in 70 μl of buffer, containing bovine serum albumin without fatty acids (1 mg/ml). In succession, the test compounds, at various concentrations, anandamide [ethanolamine 1-^3H] (specific activity: 15-20 Ci/mmol) diluted to 10 μM with cold anandamide, and the membrane preparation (400 μg of frozen tissue per assay) are added. After 15 minutes at 25° C., the enzyme reaction is terminated by adding 140 μl of chloroform/methanol. (2:1). The mixture is stirred for 10 minutes then centrifuged for 15 minutes at 3500 g. An aliquot (30 μl) of the aqueous phase, containing the ethanolamine [1-^3H], is counted by liquid scintillation.

Compound	melting point [°C]	pIC50 [1]	Reduction in number of stretches (%) (male OF1 mice; (a) 1 mg/kg p.o. at 2 hours)	Reduction in number of stretches (%) (male OF1 mice; (b) 3 mg/kg p.o. at 1 hour)
NC(=O)COC(=O)NCCc1ccc(-n2ccc3cccnc32)cc1 [Compound 224]	110 to 112	–	–	–
CNC(=O)COC(=O)NCCc1ccc(C(F)(F)F)cc1 [Compound 125, 2-(methylamino)-2-oxoethyl 2-[4-(trifluoromethyl)phenyl]ethylcarbamate]	140 to 142	–	–	–
CNC(=O)COC(=O)NCCc1cccc(Oc2ccccc2)c1 [Compound 197, 2-(methylamino)-2-oxoethyl 2-(3-phenyloxyphenyl)ethylcarbamate]	82 to 84	–	–	–
NC(=O)COC(=O)NCC1(c2ccc(-c3ccc(F)cc3)cc2)CC1 [Compound 145, 2-amino-2-oxoethyl 1-(4′-fluoro-1,1′-biphenyl-4-yl)cyclopropylmethylcarbamate]	139 to 141	–	–	–
NC(=O)COC(=O)NCc1ccc(-n2cnc(-c3ccccc3)c2)cc1 [Compound 84, 2-amino-2-oxoethyl [4-(4-phenyl-1H-imidazol-1-yl)phenyl]methylcarbamate]	200 to 203	–	–	–
CNC(=O)COC(=O)NCc1ccc(-c2ccccn2)cc1 [Compound 81, 2-(methylamino)-2-oxoethyl 4-pyridin-2-ylbenzylcarbamate]	151 to 153	–	–	–
CNC(=O)COC(=O)NCc1ccc(-c2ccc(F)cc2)cc1Cl [Compound 9, 2-(methylamino)-2-oxoethyl (3-chloro-4′-fluoro-1,1′-biphenyl-4-yl)methylcarbamate]	170 to 172	–	–	–

More lines, main results first:

melting point [°C]	pIC50 [1]	Compound	Reduction in number of stretches (%) (male OF1 mice; (a) 1 mg/kg p.o. at 2 hours)	Reduction in number of stretches (%) (male OF1 mice; (b) 3 mg/kg p.o. at 1 hour)
157 to 159	6.97	CNC(=O)COC(=O)NCCc1ccc(-c2cccc(C#N)c2)cc1 [Compound 171, 2-(methylamino)-2-oxoethyl 2-(3′-cyano-1,1′-biphenyl-4-yl)ethylcarbamate]	−51% (a)	–
186 to 188	7.20	CNC(=O)COC(=O)NCCc1ccc(-c2ccc(Cl)cc2)cc1 [Compound 150, 2-(methylamino)-2-oxoethyl 2-(4′-chloro-1,1′-biphenyl-4-yl)ethylcarbamate]	–	−57% (b)
133 to 135	–	CNC(=O)COC(=O)NCCc1ccc(Oc2ccc(Cl)cc2)cc1 [Compound 196, 2-(methylamino)-2-oxoethyl 2-{4-[(4-chlorophenyl)oxy]phenyl}ethylcarbamate]	–	–
178 to 180	6.99	CNC(=O)COC(=O)NCCc1ccc(-c2ccc(F)c(Cl)c2)cc1 [Compound 192, 2-(methylamino)-2-oxoethyl 2-(3′-chloro-4′-fluoro-1,1′-biphenyl-4-yl)ethylcarbamate]	−43% (a)	–
147 to 149	6.85	CNC(=O)COC(=O)NCCc1ccc(-c2ccc(Cl)cc2Cl)cc1 [Compound 178]	–	−53% (b)
111 to 113	6.85	CNC(=O)COC(=O)NCCc1ccc(Oc2ccccc2)cc1 [Compound 194]	–	−55% (b)
189 to 190	–	CNC(=O)COC(=O)NCc1ccc(-c2ccccc2)cc1 [Compound 1, 2-(methylamino)-2-oxoethyl 1,1′-biphenyl-4-ylmethylcarbamate]	–	–
164 to 166	–	CNC(=O)COC(=O)NCCc1ccc(-c2ccc(F)cc2)cc1F [Compound 141, 2-(methylamino)-2-oxoethyl 2-(3,4′-difluoro-1,1′biphenyl-4-yl)ethylcarbamate]	–	–
